From patent publication US20110054247A1, “METHODS FOR CLONING FERRETS AND TRANSGENIC FERRET MODELS FOR DISEASES” (UNIVERSITY OF IOWA RESEARCH FOUNDATION, priority 2009, published 2011)

Columns and labels:
CFTR-/- kits = assay: Oral UDCA therapy of CFTR-/- kits (neonatal clinical care, blood chemistries); type: in vivo, ferret; settings: Golytely and antibiotics
Procedure: Neonatal clinical care of CFTR^−/− kits. Two treatment protocols were developed to enhance post-natal survival and reduce the risk of intestinal obstruction caused by MI. Both protocols included administering metronidazole (5 mg/kg in 100 uL of dextrose saline, s.c.) 4× daily beginning at the time of birth, and starving the animals for the first 3 hours after birth and then administering a 150-200 μL Golytely® gavage (Braintree Laboratories Inc.) using a fire polished microloader pipette tip (Eppendorf Inc.) (FIG. 27 for example of gavage tube components). The gavage was repeated every 6 hours up to three times, until meconium was passed. […] When CFTR^−/− kits were weaned at 5 weeks of age, they were fed a slurry of Elecare hydrated solid chow (Marshall Farms) 2× daily, mixed with 1 lipase Unit per 10 gram body weight of Viokase-V (the amount of food eaten with each feeding was recorded for these calculations).
Blood chemistries. […] Mammalian Liver Profile rotors from Abaxis were used, and assessed plasma levels of: alkaline phosphatase (AP), alanine aminotransferase (ALT), bile acids (BA), total bilirubin (TBiI), total cholesterol (CHOL), gamma glutamyl transferase (GGT), and blood urea nitrogen (BUN). […]
For these reasons, it was determined whether oral UDCA therapy of CFTR^−/− kits might normalize liver function and improve nutrition. […]

[1] = test system: submucosal glands of CFTR-/- tracheas; assay: Functional measurement of gland secretions in tracheal xenografts; design: species or system ferret; settings: 30 minute stimulation
Procedure: Functional measurement of gland secretions in tracheal xenografts. Rates of mucous secretion from single submucosal glands were determined on excised CFTR^+/+, CFTR^+/−, and CFTR^−/− tracheal xenografts, as previously described in Joo et al. (2001), with modification to optimize xenograft viability. Xenografts were harvested and placed in minimal essential medium (MEM) with antibiotics, and shipped overnight at 4° C. from the University of Iowa to Stanford University. Tracheal xenografts were open along the posterior trachealis muscle, and dissected tracheal segments were mounted mucosal-side-up in a chamber without removing the cartilage at 4° C. […] Digital images of the spherical mucous bubbles under mineral oil were obtained at 5 minute intervals, based on which the secretory rates for individual glands was calculated using ImageJ software (NIH, MD). […] To confirm that differences in glandular secretory rates between CF and non-CF xenografts were not due to differences in gland size, we performed morphometric analysis on the samples analyzed. […] The unit length of the surface airway basal lamina and the glandular area were measured for each section using Metamorph software. […] On average about 75 photomicrographs were evaluated for each xenograft sample (N=5 for non-CF and N=6 for CF).

## C[C@H](CCC(=O)O)[C@H]1CC[C@H]2[C@@H]3[C@@H](O)C[C@@H]4C[C@H](O)CC[C@]4(C)[C@H]3CC[C@]12C [UDCA, ursodeoxycholic acid]
CFTR-/- kits; 4 of 20 CFTR-/- kits treated with UDCA
  survival of CFTR-/- kits that did not die of MI: 5 to 9 days
CFTR-/- kits; among 20 CFTR-/- kits treated with UDCA
  number of kits that died of MI: 16

## C=C[C@@]1(C)CC(=O)[C@]2(O)[C@@]3(C)[C@@H](O)CCC(C)(C)[C@@H]3[C@H](O)[C@H](OC(C)=O)[C@@]2(C)O1 [forskolin]
[1]; secretion in response to 3 μM forskolin
  reduction of fluid secretion from submucosal glands, CFTR-/- versus non-CF tracheas: 7.4 fold

## C[N+](C)(C)CCOC(N)=O [carbachol]
[1]; secretion in response to 1 μM carbachol
  reduction of fluid secretion from submucosal glands, CFTR-/- versus non-CF tracheas: reduced by half
